One series relates to IDH1(R132H)-86b. The series can be described thus: SplitLuc CETSA target engagement in HEK293T cells. The class given is cell-based. To be noted: relative to 119.
The test system of another series is U87-mIDH1 (R132H) cells. The experiment in a line: Cellular 2-HG production assay. The series is classed as cell-based, human.
Series [1] deals with U87 mIDH1 (R132H) xenograft. The experiment in a line: PK/PD in U87 R132H mIDH1 xenograft mouse model. The series is classed as in vivo. To be noted: single 30 mg/kg p.o.
A short description of series [2]: Mouse pharmacokinetic study. The class given is in vivo.
Series [3] is described as follows: PK/PD in U87 R132H mIDH1 xenograft mouse model. The series is classed as in vivo. Conditions: female, athymic nude (nu/nu NCr), mouse, in vivo, po, 30 mg/kg.
The next series deals with WT IDH1 (Homo sapiens, UniProt O75874). The experiment in a line: IDH1-WT selectivity assay. The class given is biochemical.
Chain of WT IDH1 (O75874 whole entry): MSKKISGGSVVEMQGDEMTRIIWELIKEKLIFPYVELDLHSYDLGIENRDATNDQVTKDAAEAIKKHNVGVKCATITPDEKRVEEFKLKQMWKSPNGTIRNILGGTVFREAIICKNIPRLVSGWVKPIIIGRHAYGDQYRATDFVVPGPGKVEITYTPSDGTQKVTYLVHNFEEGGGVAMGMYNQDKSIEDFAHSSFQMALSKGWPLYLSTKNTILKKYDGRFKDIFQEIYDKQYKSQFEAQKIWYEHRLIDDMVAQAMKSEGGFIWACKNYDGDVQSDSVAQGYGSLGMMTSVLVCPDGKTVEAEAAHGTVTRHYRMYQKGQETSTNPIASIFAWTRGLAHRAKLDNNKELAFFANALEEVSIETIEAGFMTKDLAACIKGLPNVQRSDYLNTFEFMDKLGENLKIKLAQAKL
A further series in a line: Kinetic solubility assay. The series is classed as physicochemical. Conditions: phosphate buffer, pH 7.4.
The target in the next series is IDH1 R132H (Homo sapiens, UniProt O75874, R132H). The experiment in a line: diaphorase/resazurin-coupled mIDH1 R132H enzyme assay. The class given is biochemical.
Chain of IDH1 R132H (O75874 whole entry R132H): as the sequence (O75874 whole entry) above, with R132H counted along it
In the next series the target is IDH1 R132C (Homo sapiens, UniProt O75874, R132C). The series can be described thus: diaphorase/resazurin-coupled mIDH1 R132C enzyme assay. The class given is biochemical. Conditions: relative to compound 87. For orientation: The colour change of resazurin is a common sign of viable cells or microbes.
Chain of IDH1 R132C (O75874 whole entry R132C): as the sequence (O75874 whole entry) above, with R132C counted along it
A short description of series [4]: Parallel artificial membrane permeability assay. The series is classed as in vitro ADME.
Series [5] in a line: Single time point rat liver microsome stability assay. Conditions: rat liver microsomes, pH 7.4. The series is classed as in vitro ADME. Background: Liver microsomes are a subcellular fraction often used to study metabolism.

Values after ≈ are worked out from the molar mass of the structure shown.

As usually defined, the Kp is the ratio of the level in a tissue or fluid to that in plasma or blood. Broadly, the Cmax is the peak of the concentration-time curve. A word on the solubility (kinetic): it is the concentration staying in solution when a stock, usually in DMSO, is diluted into the medium. As a reminder, the half-life is the time needed for the level to fall by half in the phase considered. A low value points to fast loss. As usually defined, the Papp is a coefficient for how fast a substance crosses the barrier. High values mean fast passage, low ones slow passage. Usually solubility stands for how much of the substance goes into solution per volume. A high value points to much dissolved substance.

As to `CCc1ccc(Cl)cc1-n1c(C=C(C)C)c(C(=O)N2CCNCC2)cc(-c2nc(-c3ccc(Cl)cc3)cs2)c1=O` (single isomer, unassigned) [(+)-119], the “fold more potent than 119 in HEK293 engagement assay” value with IDH1(R132H)-86b was 13 fold. Also, the “2-HG levels lowered by (%)” value with U87-mIDH1 (R132H) cells (100 nM, U87-mIDH1 (R132H) cells, 48 h) is on record as “more than 94%”. In the series on U87-mIDH1 (R132H) cells (Homo sapiens, read-out: potency at reducing 2-HG in the cellular assay), the IC50 was < 0.7 nM. Further, in the series on U87-mIDH1 (R132H) cells (relative to 119), the “fold more potent than 119 in U87 2-HG assay” value stood at 30 fold. The “average concentration in tumor at 48 h” value in series [1] (48 h, 30 mg/kg) worked out at 7 µM. In addition, in [1] (from the 16 h time point onwards), the “reduction in tumor 2-HG compared to AG-120” value is on record as “greater reduction in tumor 2-HG”. Further, the “brain AUC” value in series [2] (CD1 mice, single 30 mg/kg oral dose) is 6996 ng·h/g. This molecule also displayed a partition ratio (Kp) in series [2] (male, CD1, mouse, brain/plasma, po, 30 mg/kg) of 0.28. Further, the highest concentration (Cmax) in [2] (male, CD1, mouse, plasma, po, 30 mg/kg) is ~3340 nM.
Turning to `N#Cc1ccnc(N2C(=O)CC[C@H]2C(=O)N(c2cncc(F)c2)[C@H](C(=O)NC2CC(F)(F)C2)c2ccccc2Cl)c1` [AG-120], in series [3], the concentration at 24 h amounted to 1600 nM, the concentration at 36 h was found to be 1400 nM and the concentration at 48 h came out at 770 nM.
In the case of `COc1ccc(OC)c(-n2c3c(cc(-c4nc(-c5ccc(Cl)cc5)cs4)c2=O)C(=O)CC(C)(C)C3)c1` [Compound 1, 3-(4-(4-Chlorophenyl)thiazol-2-yl)-1-(2,5-dimethoxyphenyl)-7,7-dimethyl-7,8-dihydroquinoline-2,5(1H,6H)-dione], the “off-target activity against WT IDH1” value at WT IDH1 was “no readout interference and off-target activity against WT IDH1”.
With `CCc1cccc(CC)c1-n1c(C)c(C(=O)NC)cc(-c2nc(-c3ccc(Cl)cc3)cs2)c1=O` [Compound 70, 5-(4-(4-Chlorophenyl)thiazol-2-yl)-1-(2,6-diethylphenyl)-N,2-dimethyl-6-oxo-1,6-dihydropyridine-3-carboxamide], in the series “Kinetic solubility assay”, the solubility (kinetic) at 6 h was < 1 µM.
Consider `CCc1cccc(CC)c1-n1c(C)c(C(=O)N2CCNCC2)cc(-c2nc(-c3ccc(Cl)cc3)cs2)c1=O` [Compound 87, 3-(4-(4-Chlorophenyl)thiazol-2-yl)-1-(2,6-diethylphenyl)-6-methyl-5-(piperazine-1-carbonyl)pyridin-2(1H)-one], for which the “fold improvement in potency compared to analog 70” value at IDH1 R132H (mIDH1 R132H, relative to 70) was 7 fold. The molecule further displayed a solubility (kinetic) at 6 h in “Kinetic solubility assay” of 6.7 µM (≈ 3.67 µg/mL).
Take `CCc1cccc(CC)c1-n1c(CC2CCNC2)c(C(=O)N2CCNCC2)cc(-c2nc(-c3ccc(Cl)cc3)cs2)c1=O` (stereo not shown) [Compound 98, 3-(4-(4-Chlorophenyl)thiazol-2-yl)-1-(2,6-diethylphenyl)-5-(piperazine-1-carbonyl)-6-(pyrrolidin-3-ylmethyl)pyridin-2(1H)-one]: the “IDH1 R132H IC50 Fold improvement over 87” value at IDH1 R132H (relative to compound 87) worked out at 2.8 fold. The “IDH1 R132C IC50 Fold improvement over 87” value on IDH1 R132C came to 12 fold. For the same molecule, in [4] (pH 7.4), the “PAMPA (10^−6 cm/s)” value is given as 24 10^−6 cm/s.
Molecule `CCc1cccc(CC)c1-n1c(C=C(C)C)c(C(=O)N2CCNC(C)C2)cc(-c2nc(-c3ccc(Cl)cc3)cs2)c1=O` (stereo not shown) [Compound 99, 3-(4-(4-Chlorophenyl)thiazol-2-yl)-1-(2,6-diethylphenyl)-5-(3-methylpiperazine-1-carbonyl)-6-(2-methylprop-1-en-1-yl)pyridin-2(1H)-one] yielded a half-life at 1 μM in [5] of 25 min. Besides, in series [4] (PAMPA, pH 7.4, PAMPA (10^−6 cm/s)), the Papp at 30 min, 0.05 mM was 213 ×10⁻⁶ cm/s. Further, the solubility at 6 h in the series “Kinetic solubility assay” is < 1 µg/mL.
